Experimental data as given in patent US10617693B2, “Methods of treating and/or preventing actinic keratosis” (Athenex, Inc., priority 2017, dated 2020).

Test system: subjects with AK on the face or scalp
Assay: Phase 2a study KX01-AK-002: local skin reactions (grade 0 not present to 4 worst) and adverse events, 0.5 mg KX-01 on 25 cm^2
Type: in vivo, human
Text: An ongoing Phase 2a, open-label, multicenter, activity and safety study of KX-01 administered topically in subjects with AK on the face or scalp is described herein. […] Secondary objectives are to assess the activity of KX-01 administered topically during Days 1-57 based on reduction of AK lesion counts from baseline, assess the safety and tolerability and pharmacokinetics, and contrast the dose regimens (5-day treatment with 3-day treatment) in terms of activity and safety in subjects with AK on the face or scalp. This uncontrolled, nonrandomized trial is being conducted at 16 investigational sites in the United States. Enrollment is sequential for 2 cohorts of approximately 80 subjects each. Enrollment is closed for Cohort 1 and ongoing for Cohort 2. The two treatment cohorts are summarized below: • Cohort 1: 0.5 mg KX-01 administered topically to a contiguous treatment area of 25 cm^2 with 4-8 clinically typical AK lesions for 5 consecutive days • Cohort 2: 0.5 mg KX-01 administered topically to a contiguous treatment area of 25 cm^2 with 4-8 clinically typical AK lesions for 3 consecutive days
0.5 mg KX-01 is administered topically to an area of 25 cm^2 on the face or scalp by site staff on treatment days. […] AK lesion counts are recorded at baseline, days 8, 15, 29, and 57. […] Standardized photography of treatment area is performed at baseline, day 8 and day 57. Plasma samples are being collected at preplanned time points on days 1 and 5 for Cohort 1, and on days 1 and 3 for Cohort 2.
Absence or presence of hyperpigmentation, hypopigmentation and scarring are also assessed. Application site reactions not classified as LSRs are reported as AEs. […] LSRs and AEs are reported separately. All LSRs, pigmentation, and scarring in the treatment area will be followed to resolution or stabilization.
The range of possible composite scores is 0-24.
The Phase 2a trial described in Example 2a was completed with 84 eligible subjects enrolled in each of two cohorts: one cohort was subjected to the treatment for 5 consecutive days, and the other cohort was subjected to the treatment for 3 consecutive days. The results are described below and in FIG. 5.

In the case of O=C(Cc1ccc(-c2ccc(OCCN3CCOCC3)cc2)cn1)NCc1ccccc1 [KX-01], the “Vesiculation/Pustulation grade 0, n/N subjects” value (Day 3, Cohort 1 (5-day)) is reported as 67/67, the “Vesiculation/Pustulation grade 1, n/N subjects” value (Day 3, Cohort 1 (5-day)) is reported as 0 and the “Vesiculation/Pustulation grade 2, n/N subjects” value (Day 3, Cohort 1 (5-day)) is reported as 0. For the same molecule, the “Vesiculation/Pustulation grade 3, n/N subjects” value (Day 3, Cohort 1 (5-day)) was 0, the “Vesiculation/Pustulation grade 4, n/N subjects” value (Day 3, Cohort 1 (5-day)) was 0 and the “Crusting grade 0, n/N subjects” value (Day 4, Cohort 1 (5-day)) was 61/67. The “Crusting grade 1, n/N subjects” value (Day 4, Cohort 1 (5-day)) was 4/67, the “Crusting grade 2, n/N subjects” value (Day 4, Cohort 1 (5-day)) was 2/67 and the “Crusting grade 3, n/N subjects” value (Day 4, Cohort 1 (5-day)) was 0. For the same molecule, the “Crusting grade 4, n/N subjects” value (Day 4, Cohort 1 (5-day)) was 0, the “Erosion/Ulceration grade 0, n/N subjects” value (Day 4, Cohort 1 (5-day)) was 65/67 and the “Erosion/Ulceration grade 1, n/N subjects” value (Day 4, Cohort 1 (5-day)) was 2/67. The “Erosion/Ulceration grade 2, n/N subjects” value (Day 4, Cohort 1 (5-day)) was 0, the “Erosion/Ulceration grade 3, n/N subjects” value (Day 4, Cohort 1 (5-day)) was 0 and the “Erosion/Ulceration grade 4, n/N subjects” value (Day 4, Cohort 1 (5-day)) was 0. For the same molecule, the “Erythema grade 0, n/N subjects” value (Day 4, Cohort 1 (5-day)) was 19/67, the “Erythema grade 1, n/N subjects” value (Day 4, Cohort 1 (5-day)) was 26/67 and the “Erythema grade 2, n/N subjects” value (Day 4, Cohort 1 (5-day)) was 17/67. For the same molecule, the “Erythema grade 3, n/N subjects” value (Day 4, Cohort 1 (5-day)) was 5/67, the “Erythema grade 4, n/N subjects” value (Day 4, Cohort 1 (5-day)) was 0 and the “Flaking/Scaling grade 0, n/N subjects” value (Day 4, Cohort 1 (5-day)) was 43/67. The “Flaking/Scaling grade 1, n/N subjects” value (Day 4, Cohort 1 (5-day)) was 16/67, the “Flaking/Scaling grade 2, n/N subjects” value (Day 4, Cohort 1 (5-day)) was 5/67 and the “Flaking/Scaling grade 3, n/N subjects” value (Day 4, Cohort 1 (5-day)) was 3/67. For the same molecule, the “Flaking/Scaling grade 4, n/N subjects” value (Day 4, Cohort 1 (5-day)) was 0, the “Swelling grade 0, n/N subjects” value (Day 4, Cohort 1 (5-day)) was 65/67 and the “Swelling grade 1, n/N subjects” value (Day 4, Cohort 1 (5-day)) was 2/67. The “Swelling grade 2, n/N subjects” value (Day 4, Cohort 1 (5-day)) was 0, the “Swelling grade 3, n/N subjects” value (Day 4, Cohort 1 (5-day)) was 0 and the “Swelling grade 4, n/N subjects” value (Day 4, Cohort 1 (5-day)) was 0. The “Vesiculation/Pustulation grade 0, n/N subjects” value (Day 4, Cohort 1 (5-day)) was 66/67, the “Vesiculation/Pustulation grade 1, n/N subjects” value (Day 4, Cohort 1 (5-day)) was 1/67 and the “Vesiculation/Pustulation grade 2, n/N subjects” value (Day 4, Cohort 1 (5-day)) was 0. For the same molecule, the “Vesiculation/Pustulation grade 3, n/N subjects” value (Day 4, Cohort 1 (5-day)) was 0, the “Vesiculation/Pustulation grade 4, n/N subjects” value (Day 4, Cohort 1 (5-day)) was 0 and the “Crusting grade 0, n/N subjects” value (Day 5, Cohort 1 (5-day)) was 56/67. For the same molecule, the “Crusting grade 1, n/N subjects” value (Day 5, Cohort 1 (5-day)) was 9/67, the “Crusting grade 2, n/N subjects” value (Day 5, Cohort 1 (5-day)) was 2/67 and the “Crusting grade 3, n/N subjects” value (Day 5, Cohort 1 (5-day)) was 0. For the same molecule, the “Crusting grade 4, n/N subjects” value (Day 5, Cohort 1 (5-day)) was 0, the “Erosion/Ulceration grade 0, n/N subjects” value (Day 5, Cohort 1 (5-day)) was 61/67 and the “Erosion/Ulceration grade 1, n/N subjects” value (Day 5, Cohort 1 (5-day)) was 6/67. The “Erosion/Ulceration grade 2, n/N subjects” value (Day 5, Cohort 1 (5-day)) was 0, the “Erosion/Ulceration grade 3, n/N subjects” value (Day 5, Cohort 1 (5-day)) was 0 and the “Erosion/Ulceration grade 4, n/N subjects” value (Day 5, Cohort 1 (5-day)) was 0. The “Erythema grade 0, n/N subjects” value (Day 5, Cohort 1 (5-day)) was 12/67, the “Erythema grade 1, n/N subjects” value (Day 5, Cohort 1 (5-day)) was 19/67 and the “Erythema grade 2, n/N subjects” value (Day 5, Cohort 1 (5-day)) was 27/67. For the same molecule, the “Erythema grade 3, n/N subjects” value (Day 5, Cohort 1 (5-day)) was 9/67, the “Erythema grade 4, n/N subjects” value (Day 5, Cohort 1 (5-day)) was 0 and the “Flaking/Scaling grade 0, n/N subjects” value (Day 5, Cohort 1 (5-day)) was 35/67. For the same molecule, the “Flaking/Scaling grade 1, n/N subjects” value (Day 5, Cohort 1 (5-day)) was 21/67, the “Flaking/Scaling grade 2, n/N subjects” value (Day 5, Cohort 1 (5-day)) was 9/67 and the “Flaking/Scaling grade 3, n/N subjects” value (Day 5, Cohort 1 (5-day)) was 2/67. For the same molecule, the “Flaking/Scaling grade 4, n/N subjects” value (Day 5, Cohort 1 (5-day)) was 0, the “Swelling grade 0, n/N subjects” value (Day 5, Cohort 1 (5-day)) was 58/67 and the “Swelling grade 1, n/N subjects” value (Day 5, Cohort 1 (5-day)) was 7/67. The “Swelling grade 2, n/N subjects” value (Day 5, Cohort 1 (5-day)) was 1/67, the “Swelling grade 3, n/N subjects” value (Day 5, Cohort 1 (5-day)) was 1/67 and the “Swelling grade 4, n/N subjects” value (Day 5, Cohort 1 (5-day)) was 0. For the same molecule, the “Vesiculation/Pustulation grade 0, n/N subjects” value (Day 5, Cohort 1 (5-day)) was 65/67, the “Vesiculation/Pustulation grade 1, n/N subjects” value (Day 5, Cohort 1 (5-day)) was 2/67 and the “Vesiculation/Pustulation grade 2, n/N subjects” value (Day 5, Cohort 1 (5-day)) was 0. For the same molecule, the “Vesiculation/Pustulation grade 3, n/N subjects” value (Day 5, Cohort 1 (5-day)) was 0, the “Vesiculation/Pustulation grade 4, n/N subjects” value (Day 5, Cohort 1 (5-day)) was 0 and the “Crusting grade 0, n/N subjects” value (Day 8, Cohort 1 (5-day)) was 51/67. The “Crusting grade 1, n/N subjects” value (Day 8, Cohort 1 (5-day)) was 15/67, the “Crusting grade 2, n/N subjects” value (Day 8, Cohort 1 (5-day)) was 1/67 and the “Crusting grade 3, n/N subjects” value (Day 8, Cohort 1 (5-day)) was 0. For the same molecule, the “Crusting grade 4, n/N subjects” value (Day 8, Cohort 1 (5-day)) was 0, the “Erosion/Ulceration grade 0, n/N subjects” value (Day 8, Cohort 1 (5-day)) was 65/67 and the “Erosion/Ulceration grade 1, n/N subjects” value (Day 8, Cohort 1 (5-day)) was 1/67. The “Erosion/Ulceration grade 2, n/N subjects” value (Day 8, Cohort 1 (5-day)) was 1/67, the “Erosion/Ulceration grade 3, n/N subjects” value (Day 8, Cohort 1 (5-day)) was 0 and the “Erosion/Ulceration grade 4, n/N subjects” value (Day 8, Cohort 1 (5-day)) was 0. The “Erythema grade 0, n/N subjects” value (Day 8, Cohort 1 (5-day)) was 14/67, the “Erythema grade 1, n/N subjects” value (Day 8, Cohort 1 (5-day)) was 24/67 and the “Erythema grade 2, n/N subjects” value (Day 8, Cohort 1 (5-day)) was 25/67. For the same molecule, the “Erythema grade 3, n/N subjects” value (Day 8, Cohort 1 (5-day)) was 4/67, the “Erythema grade 4, n/N subjects” value (Day 8, Cohort 1 (5-day)) was 0 and the “Flaking/Scaling grade 0, n/N subjects” value (Day 8, Cohort 1 (5-day)) was 26/67. The “Flaking/Scaling grade 1, n/N subjects” value (Day 8, Cohort 1 (5-day)) was 18/67, the “Flaking/Scaling grade 2, n/N subjects” value (Day 8, Cohort 1 (5-day)) was 15/67 and the “Flaking/Scaling grade 3, n/N subjects” value (Day 8, Cohort 1 (5-day)) was 8/67. The “Flaking/Scaling grade 4, n/N subjects” value (Day 8, Cohort 1 (5-day)) was 0, the “Swelling grade 0, n/N subjects” value (Day 8, Cohort 1 (5-day)) was 64/67 and the “Swelling grade 1, n/N subjects” value (Day 8, Cohort 1 (5-day)) was 3/67. The “Swelling grade 2, n/N subjects” value (Day 8, Cohort 1 (5-day)) was 0, the “Swelling grade 3, n/N subjects” value (Day 8, Cohort 1 (5-day)) was 0 and the “Swelling grade 4, n/N subjects” value (Day 8, Cohort 1 (5-day)) was 0. For the same molecule, the “Vesiculation/Pustulation grade 0, n/N subjects” value (Day 8, Cohort 1 (5-day)) was 67/67, the “Vesiculation/Pustulation grade 1, n/N subjects” value (Day 8, Cohort 1 (5-day)) was 0 and the “Vesiculation/Pustulation grade 2, n/N subjects” value (Day 8, Cohort 1 (5-day)) was 0.
